The values below come from patent US20120128628A1, “COMBINATION OF A NUCLEOSIDE POLYMERASE INHIBITOR WITH A MACROCYCLIC PROTEASE INHIBITOR AND USE THEREOF IN THE TREATMENT OF HEPATITIS C, LIVER FIBROSIS AND IMPAIRED LIVER FUNCTION (as amended)” (priority 2009, published 2012).

One series concerns HCV replication. The settings on record: cited from earlier work.
The test system of series [1] is chronic hepatitis C genotype 1. Briefly: HCV RNA viral load determination (COBAS AmpilPrep/COBAS Taqman HCV Test RUO) in a dose ranging study in patients. The settings on record: monotherapy 750 mg, bid; after 7 days of treatment. It counts as in vivo, Hepatitis C virus. Here is the method:
A randomized, double-blind, placebo controlled, dose ranging study of Compound 1a and Compound 2 in adult patients with chronic hepatitis C genotype 1 was conducted. Approximately 54 treatment naïve males and females between 18 and 65 years of age (inclusive) with genotype 1 HCV infection who had not previously been treated with an interferon or investigational HCV therapeutic agent were enrolled. Approximately an additional 20 treatment patients who had failed treatment with the current standard of care (null, partial responders and relapsers) were enrolled. […] Subjects with liver cirrhosis or incomplete/transition to cirrhosis, or other forms of liver disease, anemia, HIV or HBV infection, hepatocellular carcinoma, cardiac disease or renal disease were excluded from this particular protocol, as well as pregnant or lactating women, women of childbearing potential, and male partners of women who are pregnant or lactating.
Seven groups, Groups I, II, III, IV, V, VI and VII, of subjects were studied. Blood samples were collected at time points to determine pharmacokinetics parameters, including Tmax, Cmax, Kel, T1/2, AUC, CL/F, Vd/F and accumulation ratio.
The specifics of Groups I, II, III, IV, V, VI and VII are shown in Table 1 below and pictorially in FIGS. 2 and 3. Group I included two arms with 8 subjects in Arm 1 and 8 subjects in Arm 2. […]

For series [2] the following is noted: prodrug compared to Compound 1; cited from earlier work.

Turning to `C[C@@]1(F)[C@H](O)[C@@H](CO)O[C@H]1n1ccc(N)nc1=O` [Compound 1, β-D-2′-deoxy-2′-fluoro-2′-C-methylcytidine], the “inhibiting HCV replication” value in the series with HCV replication was “effective in inhibiting HCV replication”.
Regarding `CC(C)(C)OC(=O)N[C@H]1CCCCCC=C[C@@H]2C[C@@]2(C(=O)NS(=O)(=O)C2CC2)NC(=O)[C@@H]2C[C@@H](OC(=O)N3Cc4cccc(F)c4C3)CN2C1=O` [Compound 2, (1S,4R,6S,14S,18R)-4-Fluoro-1,3-dihydro-isoindole-2-carboxylic acid 14-tert-butoxycarbonylamino-4-cyclopropanesulfonylaminocarbonyl-2,15-dioxo-3,16-diaza-tricyclo[14.3.0.04,6]nonadec-7-en-18-yl ester], the “inhibiting HCV replication” value in the series with HCV replication is “effective in inhibiting HCV replication”.
Regarding “diisobutyl ester prodrug of β-D-2′-deoxy-2′-fluoro-2′-C-methylcytidine [Compound 1a]”, the “mean log change from baseline of HCV RNA viral load” value in series [1] is given as −1.3 log10 IU/mL. Besides, in series [2], the permeability entry is on record as “increased permeability” and the plasma exposure entry is “increased plasma exposure”. For the same compound, the anti-viral efficacy result in the series on HCV replication (prodrug compared to Compound 1) is on record as “improved anti-viral efficacy”.
